Read-outs that look alike come from different tables or passages of the source.
Assays:
[1] = tested on: pigweed (Amaranthus retroflexus); test: Test A preemergence; type: in vivo; conditions: Amaranthus retroflexus, pre-emergence, 240 h; for pest or weed control at 125 g/ha: 125 g ai/ha; for pest or weed control at 500 g/ha: 500 g ai/ha
rice (Oryra sativa) = test: Test B flooded paddy test; type: in vivo; conditions: Oryza sativa, Flood, 250 g ai/ha
Outline: (§1)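 Plants at 2-leaf stage flooded to 3 cm above soil, with compounds applied directly to paddy water and that depth maintained. Plants kept in greenhouse 13–15 d. Visual rating versus controls on a 0 (no effect) to 100 (complete control) scale.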

[2] = tested on: barnyardgrass (Echinochloa crus-galli); test: Test B flooded paddy test; type: in vivo; conditions: Echinochloa crus-galli, Flood, 250 g ai/ha
Outline: as §1

[3] = tested on: sedge, umbrella (small-flower umbrella sedge, Cyperus difformis); test: Test B flooded paddy test; type: in vivo; conditions: Cyperus difformis, Flood, 250 g ai/ha
Outline: as §1

[4] = tested on: ducksalad (Heteranthera limosa); test: Test B flooded paddy test; type: in vivo; conditions: Heteranthera limosa, Flood, 250 g ai/ha
Outline: as §1

[5] = preemergence, visual rating after approx. 10 d, 0 to 100 scale where 0 is no effect and 100 is complete control, read-out: Plant response rating, Pigweed
[6] = scale of 0 to 100 where 0 is no effect and 100 is complete control, read-out: Rice plant response rating
[7] = scale of 0 to 100 where 0 is no effect and 100 is complete control, read-out: Barnyardgrass plant response rating
[8] = scale of 0 to 100 where 0 is no effect and 100 is complete control, read-out: Sedge, Umbrella plant response rating
[9] = scale of 0 to 100 where 0 is no effect and 100 is complete control, read-out: Ducksalad plant response rating
[10] = preemergence, visual injury rating, 0 to 100 scale where 0 is no effect and 100 is complete control, approximately 10 d, read-out: Pigweed plant response rating
[11] = preemergence, 0 to 100 scale where 0 is no effect and 100 is complete control, read-out: Pigweed plant response rating
[12] = 0 to 100 scale where 0 is no effect and 100 is complete control, read-out: Rice plant response rating
[13] = 0 to 100 scale where 0 is no effect and 100 is complete control, read-out: Barnyardgrass plant response rating
[14] = 0 to 100 scale where 0 is no effect and 100 is complete control, read-out: Sedge, Umbrella plant response rating
[15] = 0 to 100 scale where 0 is no effect and 100 is complete control, read-out: Ducksalad plant response rating
[16] = preemergence, 0 to 100 scale (0 no effect, 100 complete control), read-out: Plant response rating, Pigweed
[17] = Preemergence, 0 to 100 scale (0 no effect, 100 complete control), read-out: Plant response rating, Pigweed
[18] = 360 h, visually evaluated after 13 to 15 d, read-out: Plant response rating, Rice (0 to 100 scale where 0 is no effect and 100 is complete control)
[19] = 360 h, visually evaluated after 13 to 15 d, read-out: Plant response rating, Barnyardgrass (0 to 100 scale where 0 is no effect and 100 is complete control)
[20] = 360 h, visually evaluated after 13 to 15 d, read-out: Plant response rating, Sedge, Umbrella (0 to 100 scale where 0 is no effect and 100 is complete control)
[21] = 360 h, visually evaluated after 13 to 15 d, read-out: Plant response rating, Ducksalad (0 to 100 scale where 0 is no effect and 100 is complete control)

melting point [°C] | SMILES | pest or weed control at 125 g/ha [1, 5] [%] | pest or weed control at 500 g/ha ([1]; preemergence, 0 to 100 scale, 0 = no effect, 100 = complete control, read-out: Plant response rating, Pigweed) [%] | pest or weed control at 250 g/ha (rice (Oryra sativa); [6]) [%] | pest or weed control at 250 g/ha [2, 7] [%] | pest or weed control at 250 g/ha [3, 8] [%] | pest or weed control at 250 g/ha [4, 9] [%] | pest or weed control at 31 g/ha ([1]; Preemergence, 31 g ai/ha, 0 to 100 scale (0 no effect, 100 complete control), read-out: Plant response rating, Pigweed) [%] | pest or weed control at 125 g/ha [1, 10] [%] | pest or weed control at 500 g/ha [1, 11] [%] | pest or weed control at 250 g/ha (rice (Oryra sativa); [12]) [%] | pest or weed control at 250 g/ha [2, 13] [%] | pest or weed control at 250 g/ha [3, 14] [%] | pest or weed control at 250 g/ha [4, 15] [%] | pest or weed control at 500 g/ha [1, 16] [%] | pest or weed control at 125 g/ha [1, 17] [%] | pest or weed control at 250 g/ha (rice (Oryra sativa); [18]) [%] | pest or weed control at 250 g/ha [2, 19] [%] | pest or weed control at 250 g/ha [3, 20] [%] | pest or weed control at 250 g/ha [4, 21] [%]
151 to 155 | C/C=C/C1CNC(=O)C1C(=O)Nc1cccc(F)c1F (centres unmarked) [Compound 793] | 0 |  | 0 | 0 | 25 | 25 | 0 |  |  |  |  |  |  |  |  |  |  |  | 
170 to 173 | O=C1NC[C@H](c2cnc(C(F)(F)F)nc2)[C@H]1C(=O)Nc1cccc(F)c1F [Compound 1382] |  |  |  |  |  |  |  |  |  |  |  |  |  | 20 | 20 | 0 | 30 | 20 | 90
154 to 158 | O=C1NC[C@H](c2nccc(C(F)(F)F)n2)[C@H]1C(=O)Nc1cccc(F)c1F [Compound 1392] |  |  |  |  |  |  |  |  |  |  |  |  |  | 0 | 0 | 0 | 0 | 0 | 30

The remaining lines, values behind:

SMILES | melting point [°C] | pest or weed control at 125 g/ha [1, 5] [%] | pest or weed control at 500 g/ha ([1]; preemergence, 0 to 100 scale, 0 = no effect, 100 = complete control, read-out: Plant response rating, Pigweed) [%] | pest or weed control at 250 g/ha (rice (Oryra sativa); [6]) [%] | pest or weed control at 250 g/ha [2, 7] [%] | pest or weed control at 250 g/ha [3, 8] [%] | pest or weed control at 250 g/ha [4, 9] [%] | pest or weed control at 31 g/ha ([1]; Preemergence, 31 g ai/ha, 0 to 100 scale (0 no effect, 100 complete control), read-out: Plant response rating, Pigweed) [%] | pest or weed control at 125 g/ha [1, 10] [%] | pest or weed control at 500 g/ha [1, 11] [%] | pest or weed control at 250 g/ha (rice (Oryra sativa); [12]) [%] | pest or weed control at 250 g/ha [2, 13] [%] | pest or weed control at 250 g/ha [3, 14] [%] | pest or weed control at 250 g/ha [4, 15] [%] | pest or weed control at 500 g/ha [1, 16] [%] | pest or weed control at 125 g/ha [1, 17] [%] | pest or weed control at 250 g/ha (rice (Oryra sativa); [18]) [%] | pest or weed control at 250 g/ha [2, 19] [%] | pest or weed control at 250 g/ha [3, 20] [%] | pest or weed control at 250 g/ha [4, 21] [%]
CN1C[C@H](c2ccc(C(F)(F)F)cc2)[C@@H](C(=O)Nc2ccccc2C(F)(F)F)C1=O [Compound 726] | 108 to 111 | 80 | 90 | 0 | 55 | 0 | 100 |  |  |  |  |  |  |  |  |  |  |  |  | 
CN1C[C@H](c2ccc(C(F)(F)F)cc2)[C@@H](C(=O)Nc2cccc(Cl)c2F)C1=O [Compound 1238] | 138 to 141 |  |  |  |  |  |  |  | 0 | 60 | 0 | 0 | 0 | 0 |  |  |  |  |  | 
CN1CC(c2cccc(OCC=C(Cl)Cl)c2)C(C(=O)Nc2cccc(F)c2F)C1=O (centres unmarked) [Compound 1303] | 124 to 127 |  |  |  |  |  |  |  | 0 | 30 | 0 | 0 | 0 | 0 |  |  |  |  |  | 
Cc1ccc([C@H]2CN(C)C(=O)[C@@H]2C(=O)Nc2ccc(F)c(F)c2F)cc1 [Compound 1378] | 101.6 to 102.3 |  |  |  |  |  |  |  |  |  |  |  |  |  | 70 | 70 | 45 | 85 | 0 | 95
Cc1c(F)cccc1NC(=O)[C@H]1C(=O)N(C)C[C@@H]1c1ccc(C(F)(F)F)cc1 [Compound 1386] | 156 to 160 |  |  |  |  |  |  |  |  |  |  |  |  |  | 90 | 80 | 0 | 55 | 0 | 100
